Values quoted from earlier work in patent US20200188476A1, “ANTI-MICROBIAL AGENT-POLYMER CONJUGATES AND METHODS OF USE THEREOF” (The Regents of the University of California, priority 2017, published 2020).

Columns and labels:
[1] = test system: cell culture
[2] = test system: bacteria
[3] = human, in vivo
[4] = test system: bacteria; remark: listed apart in the source

Polymyxin B nonapeptide [nonapeptide of polymyxin B]
reduction of toxicity in cell culture relative to polymyxin B [1]: about 100 fold | reduction of antibacterial activity relative to polymyxin B [2]: 2-64 fold

colistin
overall incidence of neurotoxicity or neuropathy [3]: 7.3%

octanoyl polymyxin B heptapeptide
concentration that inhibits the growth of bacteria [4]: 128 µg/mL

octanoyl polymyxin B nonapeptide
inhibition of bacterial growth [4]: very potent agents to inhibit bacterial growth

octanoyl polymyxin B octapeptide
inhibition of bacterial growth [4]: very potent agents to inhibit bacterial growth
